Reference: patent US20250381220A1, “MAGNESIUM-L-THREONATE AND NEUROTRANSMITTER COMPOSITIONS AND RELATED METHODS” (Neuro Supplements, LLC, priority 2020, published 2025)

Test system: Male Wistar Rats
Test: Morris Water Maze (MWM) probe test
Type: in vivo, rat
Conditions: 21 days through drinking water, probe test day 21, FIG. 4, MgT 435, PS 60 mg/kg bw/day

In the case of phosphatidylserine [PS], the “time spent in target quadrant” value is reported as “significant increase”.
